The source made the active and inactive calls.
What was measured:
Cytochrome P450 2C9 = Cytochrome P450 2C9 (Homo sapiens, UniProt P11712)
Cytochrome P450 3A4 = Cytochrome P450 3A4 (Homo sapiens, UniProt P08684);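 also: CYP3A4 tested as one member of a cytochrome P450 panel screen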
[1] = molecular target: T1, Sentrin-specific protease 8 (Homo sapiens, UniProt Q96LD8); format: functional;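 also: luminescence read-out of SENP8 inhibition, dose-response confirmation following an ultra-high-throughput screen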
T1 sequence (Q96LD8 whole entry): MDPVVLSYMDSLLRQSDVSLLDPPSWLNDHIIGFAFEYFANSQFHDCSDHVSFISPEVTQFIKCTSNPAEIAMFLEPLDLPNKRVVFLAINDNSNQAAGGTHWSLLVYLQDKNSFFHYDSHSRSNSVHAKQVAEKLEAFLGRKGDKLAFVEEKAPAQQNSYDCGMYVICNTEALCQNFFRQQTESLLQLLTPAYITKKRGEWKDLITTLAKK

[2] = molecular target: T2, Sentrin-specific protease 7 (Homo sapiens, UniProt Q9BQF6); format: functional;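 also: Luminescence-based dose-response confirmation of ultra-high-throughput screening hits, measuring inhibition of SENP7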
T2 sequence (Q9BQF6 whole entry): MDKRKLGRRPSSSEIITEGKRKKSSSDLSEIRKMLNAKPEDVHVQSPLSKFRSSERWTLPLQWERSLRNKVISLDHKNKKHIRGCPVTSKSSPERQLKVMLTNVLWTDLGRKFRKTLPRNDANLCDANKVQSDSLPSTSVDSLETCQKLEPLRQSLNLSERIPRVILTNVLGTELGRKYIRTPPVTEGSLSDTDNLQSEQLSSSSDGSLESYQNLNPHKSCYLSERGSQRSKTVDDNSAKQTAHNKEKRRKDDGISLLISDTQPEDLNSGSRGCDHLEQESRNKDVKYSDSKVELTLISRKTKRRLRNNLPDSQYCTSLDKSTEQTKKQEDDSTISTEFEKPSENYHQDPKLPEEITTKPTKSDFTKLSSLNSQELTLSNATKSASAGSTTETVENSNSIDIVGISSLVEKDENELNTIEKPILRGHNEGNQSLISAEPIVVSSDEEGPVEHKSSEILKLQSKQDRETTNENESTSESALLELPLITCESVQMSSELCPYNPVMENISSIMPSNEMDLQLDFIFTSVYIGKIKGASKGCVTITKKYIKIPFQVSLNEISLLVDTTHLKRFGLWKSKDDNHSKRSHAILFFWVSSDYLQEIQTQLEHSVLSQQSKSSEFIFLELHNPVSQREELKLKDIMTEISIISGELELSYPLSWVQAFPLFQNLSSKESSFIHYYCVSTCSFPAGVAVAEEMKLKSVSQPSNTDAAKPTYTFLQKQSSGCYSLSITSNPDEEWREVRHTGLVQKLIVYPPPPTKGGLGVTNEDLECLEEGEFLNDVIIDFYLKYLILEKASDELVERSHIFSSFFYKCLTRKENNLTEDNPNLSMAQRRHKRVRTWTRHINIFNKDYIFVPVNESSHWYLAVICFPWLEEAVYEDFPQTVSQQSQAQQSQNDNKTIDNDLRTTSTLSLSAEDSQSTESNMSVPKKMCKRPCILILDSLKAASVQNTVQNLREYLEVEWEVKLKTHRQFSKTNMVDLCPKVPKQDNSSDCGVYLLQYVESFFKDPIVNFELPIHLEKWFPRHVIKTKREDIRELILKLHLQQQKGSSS

Caspase-3 = molecular target: T3, Caspase-3 (Homo sapiens, UniProt P42574); format: functional;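 also: Dose-response selectivity test against caspase-3 for candidate inhibitors of sentrin-specific proteases (SENPs)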
T3 sequence (P42574 whole entry): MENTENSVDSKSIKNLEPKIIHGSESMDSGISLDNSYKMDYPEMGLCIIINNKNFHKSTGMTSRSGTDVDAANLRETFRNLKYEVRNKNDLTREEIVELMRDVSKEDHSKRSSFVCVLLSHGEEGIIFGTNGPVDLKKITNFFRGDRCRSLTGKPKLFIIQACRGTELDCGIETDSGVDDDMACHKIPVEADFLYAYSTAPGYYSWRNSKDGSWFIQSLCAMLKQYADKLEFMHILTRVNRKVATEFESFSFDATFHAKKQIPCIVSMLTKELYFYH

[3] = molecular target: T4, Sentrin-specific protease 6 (Homo sapiens, UniProt Q9GZR1); format: functional;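 also: Luminescence-based dose-response confirmatory assay of SENP6 inhibition, following up an ultra-high-throughput screen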
T4 sequence (Q9GZR1 whole entry): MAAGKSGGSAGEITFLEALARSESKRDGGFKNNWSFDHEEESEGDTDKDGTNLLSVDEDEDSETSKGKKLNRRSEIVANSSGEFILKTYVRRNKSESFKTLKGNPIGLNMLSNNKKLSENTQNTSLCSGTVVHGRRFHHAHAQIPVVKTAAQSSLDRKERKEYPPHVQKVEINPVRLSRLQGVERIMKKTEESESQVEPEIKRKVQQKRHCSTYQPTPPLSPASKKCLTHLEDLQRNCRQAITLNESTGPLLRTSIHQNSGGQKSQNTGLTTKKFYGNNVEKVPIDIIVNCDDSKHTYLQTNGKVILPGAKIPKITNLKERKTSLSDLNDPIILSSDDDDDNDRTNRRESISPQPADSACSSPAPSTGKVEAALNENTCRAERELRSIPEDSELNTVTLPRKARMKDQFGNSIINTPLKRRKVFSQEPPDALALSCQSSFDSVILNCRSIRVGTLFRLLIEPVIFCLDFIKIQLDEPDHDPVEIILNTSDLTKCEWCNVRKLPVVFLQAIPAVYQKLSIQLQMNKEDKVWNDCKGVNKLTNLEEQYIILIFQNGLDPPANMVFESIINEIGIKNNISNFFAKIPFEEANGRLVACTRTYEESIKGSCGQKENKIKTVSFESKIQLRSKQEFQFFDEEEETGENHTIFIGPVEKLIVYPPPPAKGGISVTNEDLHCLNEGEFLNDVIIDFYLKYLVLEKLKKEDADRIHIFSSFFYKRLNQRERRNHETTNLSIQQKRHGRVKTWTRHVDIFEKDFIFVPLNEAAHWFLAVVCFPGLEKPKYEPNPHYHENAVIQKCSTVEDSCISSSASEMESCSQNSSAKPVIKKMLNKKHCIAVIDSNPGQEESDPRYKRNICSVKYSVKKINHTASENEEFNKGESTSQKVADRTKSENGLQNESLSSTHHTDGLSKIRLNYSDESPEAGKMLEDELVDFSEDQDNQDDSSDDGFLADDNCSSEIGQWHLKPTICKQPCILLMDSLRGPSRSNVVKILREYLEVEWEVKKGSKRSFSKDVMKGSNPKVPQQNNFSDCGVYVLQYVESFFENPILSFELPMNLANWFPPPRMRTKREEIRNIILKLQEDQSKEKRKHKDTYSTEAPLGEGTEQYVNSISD

[4] = control 3'UTR Renilla luciferase suppression, dose response, counter-screen for Shn3 inhibitor project, cell-based, Clone20-Shn3RL, cherry-picked (AID 624133); format: functional
[5] = Shn3 3'UTR reporter inhibitors, dose response, cell-based, Clone20 osteoblasts, firefly luciferase, cherry-picked (AID 624132); format: functional;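 also: firefly luciferase luminescence from reporter carrying the Shn3 3'UTR in osteoblasts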
[6] = HepG2 cell cytotoxicity, dose response, cytotoxicity control for Shn3 inhibitor project, CellTiter-Glo, cherry-picked (AID 624134); format: functional, cell-based
Streptokinase A = molecular target: T5, Streptokinase A (Streptococcus pyogenes serotype M1, UniProt P10520); assay: S. pyogenes streptokinase expression inhibitors, potency, dose response, plasminogen activation absorbance, OD405 (AID 1914); format: functional, Streptococcus pyogenes M1 GAS;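 also: secreted streptokinase activity via plasminogen activation per viability signal from cell pellet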
T5 sequence (P10520 whole entry): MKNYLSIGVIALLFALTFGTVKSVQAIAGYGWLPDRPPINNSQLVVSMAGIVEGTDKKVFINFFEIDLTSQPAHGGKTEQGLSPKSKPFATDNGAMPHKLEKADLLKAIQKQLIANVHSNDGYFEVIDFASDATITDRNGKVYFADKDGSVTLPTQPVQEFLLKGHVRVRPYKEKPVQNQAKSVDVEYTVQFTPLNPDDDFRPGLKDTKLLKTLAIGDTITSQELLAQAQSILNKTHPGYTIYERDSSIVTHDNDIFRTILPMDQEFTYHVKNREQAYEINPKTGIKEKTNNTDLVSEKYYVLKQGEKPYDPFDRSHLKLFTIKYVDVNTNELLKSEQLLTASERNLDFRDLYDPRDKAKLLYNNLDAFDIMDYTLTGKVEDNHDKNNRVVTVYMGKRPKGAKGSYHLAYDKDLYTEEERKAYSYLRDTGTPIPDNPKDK

[7] = test system: Streptococcus sp. 'group A'; assay: growth inhibition of control SK(-) GAS strain, dose response, counter-screen for streptokinase expression inhibitor project, luminescence, kanamycin, BacTiterGlo, confirmation (AID 1900); format: functional, organism-based
Streptococcus = assay: Group A Streptococcus viability loss, dose response, counter-screen for streptokinase expression inhibitor project, luminescence, BacTiterGlo (AID 1915); format: functional, organism-based;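 also: potency for reduction of bacterial viability or growth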
BJ [8] = assay: cytotoxicity toward BJ-TERT fibroblasts, dose response, cell-based, RAS-independent, luminescence (AID 1933); format: functional; conditions: Homo sapiens
[9] = cytotoxicity toward DRD oncogenic fibroblasts, dose response, cell-based, non-viral oncogenic, luminescence (AID 1934); format: functional; conditions: Homo sapiens
BJ [10] = assay: cytotoxicity toward BJ-TERT-LT-ST fibroblasts, dose response, cell-based, RAS-independent, luminescence (AID 1935); format: functional; conditions: Homo sapiens;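 also: BJ fibroblasts immortalized with TERT plus LT and ST oncogenes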
BJ [11] = assay: cells; format: functional, cell-based; conditions: Homo sapiens
BJ [12] = assay: cytotoxicity toward Ras-transformed BJeLR fibroblasts, dose response, cell-based, alamar blue fluorescence, cherrypicked samples (AID 2631); format: functional; conditions: Homo sapiens;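 also: confirmatory dose-response assay in RAS-dependent BJ fibroblasts engineered with TERT, LT and ST, with cytotoxicity read by fluorescence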
[13] = Luminescence Cell-Based Dose Response HTS to Identify Inhibitors of 5'UTR Stem-Loop Driven Prion Protein mRNA Translation in H4 Neuroglioblastoma Cells. [Related pubchem assays: 1827 (Project Summary), 1813 (Primary HTS)]; format: functional
[14] = inhibitors of SNCA 5'UTR-driven reporter translation, confirmation, H4 neuroglioma cells, luminescence (AID 1988); format: functional, cell-based
[15] = inhibitors of firefly luciferase expression or activity, dose response, H4 neuroglioma cells, luminescence (AID 1990); format: functional, cell-based
[16] = A549 cell cytotoxicity, dose response, cytotoxicity control, plate reader, cherry-pick, antagonist series (AID 743412); format: functional, cell-based
[17] = HEK293 cell cytotoxicity, dose response, cytotoxicity control, plate reader, cherry-picked samples (AID 743446); format: functional, cell-based
[18] = LGR2 antagonists, dose response, cell-based, HEK293, CRE-luciferase reporter, cherry pick, set 2 (AID 743343); format: functional;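 also: transfected cells were stimulated with diluted bursicon conditioned medium after compound addition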
[19] = MC4R antagonists, dose response, counter-screen for LGR2 antagonist project, cell-based, plate reader, cherry pick (AID 743444); format: functional;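 also: transfected HEK 293 cells stimulated with alpha-MSH peptide; potency of inhibitors of the alpha-MSH evoked signal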
[20] = HepG2 cell cytotoxicity, dose response, cytotoxicity control, plate reader, cherry-pick, antagonist series (AID 743416); format: functional, cell-based

Chain of Cytochrome P450 2C9 (P11712 whole entry): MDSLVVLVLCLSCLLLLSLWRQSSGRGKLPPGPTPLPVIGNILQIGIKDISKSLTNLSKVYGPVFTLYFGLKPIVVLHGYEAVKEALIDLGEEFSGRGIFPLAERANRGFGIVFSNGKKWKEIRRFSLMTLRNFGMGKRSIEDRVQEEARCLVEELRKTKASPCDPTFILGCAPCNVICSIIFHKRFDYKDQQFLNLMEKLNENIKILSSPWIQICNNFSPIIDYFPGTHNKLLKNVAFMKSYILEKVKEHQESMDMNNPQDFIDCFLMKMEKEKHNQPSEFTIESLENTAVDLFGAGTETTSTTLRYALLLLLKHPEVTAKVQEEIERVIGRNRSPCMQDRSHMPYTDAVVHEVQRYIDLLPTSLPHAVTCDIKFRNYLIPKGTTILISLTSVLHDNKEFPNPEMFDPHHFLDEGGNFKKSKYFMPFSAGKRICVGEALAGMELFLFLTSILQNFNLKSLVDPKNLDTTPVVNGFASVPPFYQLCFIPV
Chain of Cytochrome P450 3A4 (P08684 whole entry): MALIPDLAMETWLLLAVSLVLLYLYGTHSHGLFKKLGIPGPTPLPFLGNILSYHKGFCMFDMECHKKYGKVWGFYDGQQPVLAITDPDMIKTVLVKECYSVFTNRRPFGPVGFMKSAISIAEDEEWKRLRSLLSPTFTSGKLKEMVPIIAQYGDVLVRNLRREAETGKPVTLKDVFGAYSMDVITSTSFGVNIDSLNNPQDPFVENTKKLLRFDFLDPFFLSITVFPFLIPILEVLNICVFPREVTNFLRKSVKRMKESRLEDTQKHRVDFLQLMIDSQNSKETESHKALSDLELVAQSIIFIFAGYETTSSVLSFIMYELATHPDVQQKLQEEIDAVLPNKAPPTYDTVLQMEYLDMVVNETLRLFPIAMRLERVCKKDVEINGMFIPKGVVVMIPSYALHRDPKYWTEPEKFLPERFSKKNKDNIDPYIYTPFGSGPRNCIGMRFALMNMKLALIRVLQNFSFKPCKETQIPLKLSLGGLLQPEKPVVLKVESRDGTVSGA

| SMILES | IC50 [1] | IC50 [2] | IC50 (Caspase-3) | IC50 [3] | AC50 [4] | AC50 [5] | AC50 [6] | further results |
| --- | --- | --- | --- | --- | --- | --- | --- | --- |
| CC(C)CN1CCCC2(CCN(C(=O)c3ccco3)CC2)C1 | – | – | – | – | – | – | – | AC50 (Cytochrome P450 2C9): inconclusive; AC50 (Cytochrome P450 3A4): 31.6 µM (inconclusive) |
| N#Cc1ccsc1NC(=O)CSc1nnnn1-c1ccc(O)cc1 | 36.8 µM (active) | 10.3 µM (active) | 20.6 µM (active) | 30.5 µM (active) | – | – | – | – |
| COc1ccc(NC(=O)CSc2ncccc2C(=O)OC(C)C)cc1OC | – | – | – | – | 1.54 µM (active) | 4.1 µM (active) | 41.9 µM (active) | – |
| COc1ccc(-c2nc(NC(=O)C3CC(=O)N(c4ccc5c(c4)OCCO5)C3)sc2C)cc1 (stereo unspecified) | – | – | – | – | 13.4 µM (active) | 5.24 µM (active) | 47.3 µM (active) | EC50 (Streptokinase A): > 150 µM (not active); EC50 [7]: 21.7 µM (active); EC50 (Streptococcus): 63.6 µM (active) |
| CCOc1ccc(CC(=O)Nc2ccc(NC(=O)c3ccco3)cc2)cc1OCC | – | – | – | – | – | – | – | EC50 (BJ [8]): > 150 µM (not active); EC50 [9]: > 150 µM (not active); EC50 (BJ [10]): 9.89 µM (inconclusive); EC50 (BJ [11]): 2.55 µM (active); EC50 (BJ [12]): > 66.7 µM (inactive); EC50 [13]: 6.05 µM (active); EC50 [14]: 8.44 µM (active); EC50 [15]: 11 µM (active) |
| CCN(C(=O)C1CCN(c2nc(-c3ccc(OC)cc3)no2)CC1)c1ccc(OC)cc1 | – | – | – | – | 11.8 µM (active) | 3.17 µM (active) | 62.5 µM (active) | – |
| Cc1cccc(-n2ncc3c(N4CCC(C)CC4)ncnc32)c1 | 27.9 µM (active) | 7.97 µM (active) | 19.5 µM (active) | 21.9 µM (active) | – | – | – | – |
| CC(=O)c1ccccc1OCCOCCOCCOc1ccccc1C(C)=O | – | – | – | – | – | – | – | EC50 (BJ [8]): 27 µM (active); EC50 [9]: > 150 µM (not active); EC50 (BJ [10]): > 150 µM (inconclusive); EC50 (BJ [11]): > 150 µM (not active); EC50 (BJ [12]): > 133 µM (inactive); EC50 [14]: > 120 µM (not active); EC50 [15]: > 120 µM (not active) |
| O=C(CSc1ccccn1)NCc1ccc2c(c1)OCO2 | – | – | – | – | – | – | – | EC50 (BJ [12]): > 133 µM (inactive) |
| Oc1nc2ccccc2n1C1CCN(C(c2cccs2)c2nnnn2Cc2ccccc2)CC1 (stereo unspecified) | – | – | – | – | 6.11 µM (active) | 2.98 µM (active) | > 70 µM (inactive) | AC50 [16]: 13.7 µM (active); AC50 [17]: 29.8 µM (active); AC50 [18]: 2.74 µM (active); AC50 [19]: 1.76 µM (active); AC50 [20]: 44.4 µM (active) |
| C/C(=N\Nc1ccc([N+](=O)[O-])cc1)c1ccco1 | 73.8 µM (active) | 6.51 µM (active) | 18.4 µM (active) | 10.6 µM (active) | – | – | – | – |
| C/C(=N\OC(=O)c1ccc(Br)cc1)c1ccccn1 | 2.43 µM (active) | 1.01 µM (active) | 1.26 µM (active) | 1.31 µM (active) | – | – | – | – |
| COc1cccc(C(=O)Oc2ccc(/C=N/Nc3ccc(C(=O)O)cc3)cc2OC)c1 | 17.1 µM (active) | 12.3 µM (active) | 74.2 µM (active) | 14.3 µM (active) | – | – | – | EC50 (Streptokinase A): > 150 µM (not active); EC50 [7]: 5 µM (active); EC50 (Streptococcus): 19 µM (active) |

From ChEMBL document CHEMBL1201862, “PubChem BioAssay data set” (2004)
